From patent US20030104393A1, “Blood assessment of injury” (priority 2000, published 2003)

What was measured:
[1] = tested on: brain; experiment: Genes induced in the brain following kainic acid-induced seizures (microarray); type: in vivo, rat; set-up: key: NC = No Change
Protocol: (§1) Status epilepticus is produced by intraperitoneally injecting a glutamate analogue/excitotoxin, kainic acid (10 mg/kg i.p.). Animals with kainate-induced seizures are observed following drug administration to ensure that they continue to have complex seizures over a 30 minute period.
All animals are allowed to survive for 24 hours following each treatment. At that time they are deeply anesthetized with ketamine (100 mg/kg) and xylazine (20 mg/kg) given intraperitoneally. Once anesthetized, the chest is opened and a direct cardiac puncture performed with a syringe and 10 cc of blood is aspirated. Immediately following removal of the blood, the animal is decapitated while deeply anesthetized and the brain removed.
One day after hypoxia, status epilepticus, hypoglycemia, ischemic stroke, and hemorrhagic stroke are produced in adult rats, RNA or protein is isolated from the blood cells and from the brains of the animals described in Example 1. The pattern of genes or proteins expressed in the blood cells following each of these types of injury—hypoxia, status epilepticus, hypoglycemia, ischemic stroke, and hemorrhagic stroke is captured on a commercially available microarray (Affymetrix chip). The pattern of gene or protein expression is defined using an expression method, which then forms a genomic or proteomic organ injury database, which is used in assessing injury.
Note that the genes induced in the blood are different from the genes induced in the brain. Therefore, different organs express different genes. In addition, the genes induced by hypoxia in the blood are different from the genes induced by hypoxia in the brain. That is, the same stimulus induces different genes in different organs. Lastly, even though similar genes are induced in the brain by ischemia (stroke) and kainic acid-induced seizures, there are many differences in the gene expression between the two. Therefore, the pattern of gene expression in the brains of ischemic animals is distinctive from the pattern of expression of the kainate animals, and this pattern can be used to diagnose the different conditions of stroke and status epilepticus, even though many of the same genes are induced in the two conditions.
In further support, the following Tables 5 and 6 list those genes induced in the brain following stroke, kainic induced seizures, and hypoxia as compared with untouched controls and sham-operated controls.

[2] = tested on: neurons; experiment: Status epilepticus produced by kainic acid: neuronal injury; type: in vivo, rat; conditions: kainic acid 10 mg/kg i.p., 24 hours later
Protocol: as §1

Structure (SMILES): C=C(C)[C@H]1CN[C@H](C(=O)O)[C@H]1CC(=O)O [kainate, kainic acid]
- Kainic Acid Seizure (fold change) ([1]; brain, D29769_at bone morphogenic protein-7): NC
- Kainic Acid Seizure (fold change) ([1]; brain, J03624_at Rat galanin (a neuropeptide) RNA): 3 fold change
- Kainic Acid Seizure (fold change) ([1]; brain, L20913_s_at vascular endothelial growth factor form 3 RNA): NC
- Kainic Acid Seizure (fold change) ([1]; brain, L32591RNA_g GADD45 RNA): 3 fold change
- Kainic Acid Seizure (fold change) ([1]; brain, L46593cds_at small proline-rich protein (spr) gene): 4 fold change
- Kainic Acid Seizure (fold change) ([1]; brain, M55534RNA_s Rat alpha-crystallin b chain RNA): 2 fold change
- Kainic Acid Seizure (fold change) ([1]; brain, M60616_at Rat collagenase (UMRCase) RNA): NC
- Kainic Acid Seizure (fold change) ([1]; brain, M63282_at Rat leucine zipper protein RNA): NC
- Kainic Acid Seizure (fold change) ([1]; brain, M90661_at Rattus norvegicus insulin receptor-related receptor-alpha subunit RNA): NC
- Kainic Acid Seizure (fold change) ([1]; brain, RC_AA891041 EST): NC
- Kainic Acid Seizure (fold change) ([1]; brain, U13396_at protein-tyrosine kinase (JAK2) RNA): NC
- Kainic Acid Seizure (fold change) ([1]; brain, U16674_at interleukin-12p40 RNA): NC
- Kainic Acid Seizure (fold change) ([1]; brain, U49930_g_at ICE-like cysteine protease (Lice) RNA): 2.7 fold change
- Kainic Acid Seizure (fold change) ([1]; brain, U77829RNA_s Rattus norvegicus gas-5 growth arrest homolog NCn-translated RNA sequence): 3.4 fold change
- Kainic Acid Seizure (fold change) ([1]; brain, U88572_at AMPA receptor interacting protein GRIP RNA): 3.5 fold change
- Kainic Acid Seizure (fold change) ([1]; brain, U099870_at Vmajor vault protein RNA): 2.5 fold change
- Kainic Acid Seizure (fold change) ([1]; brain, Y10619cds_at transcriptional regulator, Relax): 3.5 fold change
- Kainic Acid Seizure (fold change) ([1]; brain, a30543cds_s_ p-Meta-a RNA for CD44 surface protein from patent WO9117248): 4.4 fold change
- Kainic Acid Seizure (fold change) ([1]; brain, ab005900_at endothelial receptor for oxidized low density): NC
- Kainic Acid Seizure (fold change) ([1]; brain, af00898_at p58/p45 RNA, alternatively spliced form clone H): 3.3 fold change
- Kainic Acid Seizure (fold change) ([1]; brain, af28784cds# glial fibrillary acidic proteins alpha and delta (GFAP) gene): 6.2 fold change
- Kainic Acid Seizure (fold change) ([1]; brain, af030089UTR# Rattus norvegicus activity and neurotransmitter-induced early gene): 4 fold change
- Kainic Acid Seizure (fold change) ([1]; brain, af036537_at homocysteine respondent protein): NC
- Kainic Acid Seizure (fold change) ([1]; brain, af036537 homocysteine respondent protein HCYP2 RNA): NC
- Kainic Acid Seizure (fold change) ([1]; brain, af053362_at Rattus norvegicus death effector domain-containing protein DEFT RNA): NC
- Kainic Acid Seizure (fold change) ([1]; brain, af074608RNA MHC class I antigen (RT1.EC2) gene): 3 fold change
- Kainic Acid Seizure (fold change) ([1]; brain, af083269_at p41-Arc RNA): 3.3 fold change
- Kainic Acid Seizure (fold change) ([1]; brain, af083269_g_at p41-Arc RNA): 3.3 fold change
- Kainic Acid Seizure (fold change) ([1]; brain, af086624_s_a serine threonine kinase (pim-3) RNA): NC
- Kainic Acid Seizure (fold change) ([1]; brain, af087944RNA monocyte differentiation antigen CD14 gene): 2.6 fold change
- Kainic Acid Seizure (fold change) ([1]; brain, af092090_at cp151 RNA): 2.7 fold change
- Kainic Acid Seizure (fold change) ([1]; brain, aj222813_s_a precursor interleukin 18 (IL-18)): 3.8 fold change
- Kainic Acid Seizure (fold change) ([1]; brain, d00913_g_at intercellular adhesion molecule-1): NC
- Kainic Acid Seizure (fold change) ([1]; brain, d8557s_at RYB-a): 3.5 fold change
- Kainic Acid Seizure (fold change) ([1]; brain, d17370_g_at cystathionine gamma-lyase): 3.8 fold change
- Kainic Acid Seizure (fold change) ([1]; brain, d89069_f_at inducible carbonyl reductase): NC
- Kainic Acid Seizure (fold change) ([1]; brain, d90404_at cathepsin C): 2.8 fold change
- Kainic Acid Seizure (fold change) ([1]; brain, d90404_g_at cathepsin C): NC
- Kainic Acid Seizure (fold change) ([1]; brain, j00780_at rat preprorelaxin RNA): NC
- Kainic Acid Seizure (fold change) ([1]; brain, j04563_at Rat cAMP phosphodiesterase RNA): 5.4 fold change
- Kainic Acid Seizure (fold change) ([1]; brain; j04792_at ornithine decarboxylase ODC) gene): 1.7 fold change
- Kainic Acid Seizure (fold change) ([1]; brain, m13979_at Rat brain and all other organ glucose-transporter protein RNA): 2.1 fold change
- Kainic Acid Seizure (fold change) ([1]; brain, m18330_at Rat protein kinase C delta subspecies): 3.3 fold change
- Kainic Acid Seizure (fold change) ([1]; brain, m19257_at Rat cysosolic retinol-binding protein (CRBP) RNA): 4 fold change
- Kainic Acid Seizure (fold change) ([1]; brain, m32062_at Rat Fc-gamma receptor RNA): 1.5 fold change
- Kainic Acid Seizure (fold change) ([1]; brain, m34253_g_at Rat-interferon regulatory factor1 (IRF-a) RNA): 3 fold change
- Kainic Acid Seizure (fold change) ([1]; brain, m60753_s_at catechol-O-methyltransferase RNA): 4.5 fold change
- Kainic Acid Seizure (fold change) ([1]; brain, m63122_at Rat tumor necrosis factor receptor (TNF receptor)): 2.8 fold change
- Kainic Acid Seizure (fold change) ([1]; brain, m80633_at Rat adenylyl cyclase type (IV) RNA): 5.2 fold change
- Kainic Acid Seizure (fold change) ([1]; brain, rc_A1014163 EST): 2.3 fold change
- Kainic Acid Seizure (fold change) ([1]; brain, rc_aa799323— EST): NC
- Kainic Acid Seizure (fold change) ([1]; brain, rc_aa799448 EST): NC
- Kainic Acid Seizure (fold change) ([1]; brain, rc_aa799686 EST): 6.3 fold change
- Kainic Acid Seizure (fold change) ([1]; brain, rc_aa799773 EST): 4.7 fold change
- Kainic Acid Seizure (fold change) ([1]; brain, rc_aa800701 EST): NC
- Kainic Acid Seizure (fold change) ([1]; brain, rc_aa800962 EST): NC
- Kainic Acid Seizure (fold change) ([1]; brain, rc_aa866443 EST): NC
- Kainic Acid Seizure (fold change) ([1]; brain, rc_aa875032 EST): NC
- Kainic Acid Seizure (fold change) ([1]; brain, rc_aa875126 EST): 8.7 fold change
- Kainic Acid Seizure (fold change) ([1]; brain, rc_aa891576 EST): NC
- Kainic Acid Seizure (fold change) ([1]; brain, rc_aa892750 EST): NC
- Kainic Acid Seizure (fold change) ([1]; brain, rc_aa892775 EST): 2.3 fold change
- Kainic Acid Seizure (fold change) ([1]; brain, rc_aa892851 EST): NC
- Kainic Acid Seizure (fold change) ([1]; brain, rc_aa900476 EST): NC
- Kainic Acid Seizure (fold change) ([1]; brain, rc_aa926129_ EST): 4.9 fold change
- Kainic Acid Seizure (fold change) ([1]; brain, rc_aa945737 EST): NC
- Kainic Acid Seizure (fold change) ([1]; brain, rc_aa946044 EST): 2.8 fold change
- Kainic Acid Seizure (fold change) ([1]; brain, rc_ai6i39302 EST): NC
- Kainic Acid Seizure (fold change) ([1]; brain, rc_ai070295 EST): 1.9 fold change
- Kainic Acid Seizure (fold change) ([1]; brain, rc_ai71962 EST): 1.9 fold change
- Kainic Acid Seizure (fold change) ([1]; brain, rc_ai169756 EST): 1.7 fold change
- Kainic Acid Seizure (fold change) ([1]; brain, rc_ai171966 EST): 3.8 fold change
- Kainic Acid Seizure (fold change) ([1]; brain, rc_ai176456 EST): 2.3 fold change
- Kainic Acid Seizure (fold change) ([1]; brain, rc_ai233219 EST): NC
- Kainic Acid Seizure (fold change) ([1]; brain, rc_ai638945 EST): NC
- Kainic Acid Seizure (fold change) ([1]; brain, rc_ai639042): NC
- Kainic Acid Seizure (fold change) ([1]; brain, rc_ai639161 EST): 7.5 fold change
- Kainic Acid Seizure (fold change) ([1]; brain, rc_ai639233 EST): NC
- Kainic Acid Seizure (fold change) ([1]; brain, rc_ai639372_ EST): NC
- Kainic Acid Seizure (fold change) ([1]; brain, rc_ai639402 EST): NC
- Kainic Acid Seizure (fold change) ([1]; brain, rc_ai639457 EST): NC
- Kainic Acid Seizure (fold change) ([1]; brain, s77494_s_at lysyl oxidase {3Nuntranslated region} [rats, aorta smooth muscle cell): NC
- Kainic Acid Seizure (fold change) ([1]; brain, s82649_s_at Narp = neuronal activity-regulated pentraxin): 2.2 fold change
- Kainic Acid Seizure (fold change) ([1]; brain, u04835_at CREMdeltaC—G gene): 2.1 fold change
- Kainic Acid Seizure (fold change) ([1]; brain, u05014_at Rattus norvegicus Sprague/Dawley PHAS-a): 3.9 fold change
- Kainic Acid Seizure (fold change) ([1]; brain, u23407_at Rattus norvegicus cellular retinoic acid-binding protein II (CRABP II) RNA): 9.2 fold change
- Kainic Acid Seizure (fold change) ([1]; brain, u33500_g_at retinol dehydrogenase type II RNA): NC
- Kainic Acid Seizure (fold change) ([1]; brain, u78102_at krox20 RNA): NC
- Kainic Acid Seizure (fold change) ([1]; brain, x54686cds_at pJunB gene): NC
- Kainic Acid Seizure (fold change) ([1]; brain, x60351cds_s alpha B-crystallin): 2.4 fold change
- Kainic Acid Seizure (fold change) ([1]; brain, x62951RNA_s R. norvegicus RNA (pBUS19) with repetitive): NC
- Kainic Acid Seizure (fold change) ([1]; brain, x63434_at R. norvegicus RNA for urokinase-type plasminogen activator): NC
- Kainic Acid Seizure (fold change) ([1]; brain, x63594cds_g_ RL/IF-1 RNA): NC
- Kainic Acid Seizure (fold change) ([1]; brain, x71127_at complement protein C1q beta): 2.7 fold change
- Kainic Acid Seizure (fold change) ([1]; brain, x71127_s_at complement protein C1q beta chain): 3.6 fold change
- Kainic Acid Seizure (fold change) ([1]; brain, x74565cds_g_ TBFII RNA for polypyrimidine tract binding): 5.4 fold change
- Kainic Acid Seizure (fold change) ([1]; brain, x95986RNA#1 CBR gene): NC
- Kainic Acid Seizure (fold change) ([1]; brain, x98377_at RNA for emerin): NC
- Kainic Acid Seizure (fold change) ([1]; brain, x99121RNA#1 RT6 gene, exon 2, testis): NC
- Kainic Acid Seizure (fold change) ([1]; brain, z22812_at interleukin-1 receptor type 2): NC
- Neuronal injury [2]: diffuse neuronal injury
